# Measurements: ChEMBL document CHEMBL1201862, “PubChem BioAssay data set” (2004)
# Calls of active or inactive are those of the source.
# What was measured:
# P388/ADR = test: cells; assay type: functional; details: Mus musculus
# SN12K1 = test: cells; assay type: functional; details: Homo sapiens
# P388 = test: cells; assay type: functional; details: Mus musculus
# Protein skinhead-1 = target: T1, Protein skinhead-1 (Caenorhabditis elegans, UniProt P34707); assay type: functional
# T1 sequence (P34707 whole entry): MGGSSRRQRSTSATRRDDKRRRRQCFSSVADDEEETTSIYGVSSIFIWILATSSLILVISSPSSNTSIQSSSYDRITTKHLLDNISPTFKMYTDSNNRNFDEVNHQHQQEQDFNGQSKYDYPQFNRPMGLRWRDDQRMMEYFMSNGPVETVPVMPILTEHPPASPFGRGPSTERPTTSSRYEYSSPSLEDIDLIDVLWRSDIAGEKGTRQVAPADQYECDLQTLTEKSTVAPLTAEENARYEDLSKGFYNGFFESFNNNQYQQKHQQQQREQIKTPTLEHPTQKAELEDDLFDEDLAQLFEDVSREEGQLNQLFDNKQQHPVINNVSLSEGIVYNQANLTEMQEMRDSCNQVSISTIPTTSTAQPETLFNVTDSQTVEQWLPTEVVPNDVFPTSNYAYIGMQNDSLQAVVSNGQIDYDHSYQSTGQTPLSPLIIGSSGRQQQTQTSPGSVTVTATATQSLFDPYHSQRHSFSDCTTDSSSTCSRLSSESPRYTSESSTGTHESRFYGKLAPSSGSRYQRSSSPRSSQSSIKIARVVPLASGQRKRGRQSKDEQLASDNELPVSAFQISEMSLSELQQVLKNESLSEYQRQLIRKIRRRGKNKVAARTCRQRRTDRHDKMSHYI
# [1] = Trypanosoma cruzi growth suppression in host cells – NIH3T3 host cells, beta-gal luminescence, confirmation (AID 2044); assay type: functional, cell-based;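 also: intracellular parasites grown in NIH/3T3 mouse fibroblasts as host cells; luminescent beta-galactosidase reporter signal from transgenic T. cruzi replicating inside host cells; inhibitors lower the luminescence signal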
# [2] = NIH3T3 cell viability loss – ATP luminescence, mouse fibroblasts, counter-screen, dose response (AID 2010); assay type: functional, cell-based; details: NIH3T3;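 also: cells exposed to compound for about 90 hours before reading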
# [3] = target: T2, Corticotropin-releasing factor receptor 2/Corticotropin-releasing factor-binding protein (Homo sapiens, UniProt P24387+Q13324); test: Dose Response confirmation of uHTS hits for small molecule antagonists of the CRF-binding protein and CRF-R2 receptor complex.; assay type: functional; details: read-out: IC50_Mean
# T2 sequence (Q13324 whole entry): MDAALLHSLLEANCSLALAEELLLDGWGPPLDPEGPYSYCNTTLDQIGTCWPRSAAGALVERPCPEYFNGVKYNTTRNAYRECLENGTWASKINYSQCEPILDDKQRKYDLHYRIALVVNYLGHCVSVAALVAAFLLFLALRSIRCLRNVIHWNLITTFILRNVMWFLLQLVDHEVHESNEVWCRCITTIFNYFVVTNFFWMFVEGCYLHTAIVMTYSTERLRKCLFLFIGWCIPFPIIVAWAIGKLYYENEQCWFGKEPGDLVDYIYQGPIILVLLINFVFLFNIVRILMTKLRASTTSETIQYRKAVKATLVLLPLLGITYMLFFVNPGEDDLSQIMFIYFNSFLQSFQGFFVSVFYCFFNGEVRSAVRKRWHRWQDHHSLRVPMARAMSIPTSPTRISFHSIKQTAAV
# T2 sequence (P24387 whole entry): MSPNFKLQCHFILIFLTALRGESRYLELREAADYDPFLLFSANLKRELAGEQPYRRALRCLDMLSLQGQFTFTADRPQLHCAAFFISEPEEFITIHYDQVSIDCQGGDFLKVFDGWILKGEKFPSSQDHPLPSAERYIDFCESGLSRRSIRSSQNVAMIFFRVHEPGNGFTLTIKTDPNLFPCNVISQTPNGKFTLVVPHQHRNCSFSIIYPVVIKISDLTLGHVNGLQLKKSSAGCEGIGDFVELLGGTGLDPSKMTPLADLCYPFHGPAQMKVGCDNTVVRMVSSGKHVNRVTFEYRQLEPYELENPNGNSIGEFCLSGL
# [4] = target: T2, Corticotropin-releasing factor receptor 2/Corticotropin-releasing factor-binding protein; test: activators of CRF receptor 2 with binding protein – uHTS hits, confirmation (AID 602473); assay type: functional; details: read-out: EC50_Mean
# Cytochrome P450 1A2 = target: T3, Cytochrome P450 1A2 (Homo sapiens, UniProt P05177);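 also: PubChem cytochrome P450 panel assay, CYP1A2 panel member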
# T3 sequence (P05177 whole entry): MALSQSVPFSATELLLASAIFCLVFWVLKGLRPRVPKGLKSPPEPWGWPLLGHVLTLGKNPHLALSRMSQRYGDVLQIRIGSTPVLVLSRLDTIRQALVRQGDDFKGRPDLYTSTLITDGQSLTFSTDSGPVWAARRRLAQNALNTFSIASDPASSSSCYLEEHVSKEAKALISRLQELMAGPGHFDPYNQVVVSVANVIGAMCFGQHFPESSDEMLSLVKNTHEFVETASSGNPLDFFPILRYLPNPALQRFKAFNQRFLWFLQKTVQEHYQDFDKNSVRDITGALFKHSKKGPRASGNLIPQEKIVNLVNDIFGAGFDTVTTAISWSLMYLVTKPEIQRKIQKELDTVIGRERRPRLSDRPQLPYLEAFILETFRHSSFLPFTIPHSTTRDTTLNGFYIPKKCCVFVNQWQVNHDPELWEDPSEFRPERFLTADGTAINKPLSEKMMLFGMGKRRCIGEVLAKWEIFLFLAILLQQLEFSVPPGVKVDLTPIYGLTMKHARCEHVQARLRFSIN
# Cytochrome P450 2C9 = Cytochrome P450 2C9 (Homo sapiens, UniProt P11712)
# [5] = viability of PTEN-deleted HCT116 cells – cell-based, HCT116 PTEN knockout, dose response (AID 1047); assay type: functional;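 also: HCT116 colon tumor cells with PTEN knocked out; cells exposed to compound for 60 hours before readout; potency for loss of cell viability measured by luminescence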
# [6] = viability of HCT116 lacking mutant beta-catenin – cell-based, human colon tumor, dose response (AID 1045); assay type: functional;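 also: HCT116 colon tumor cells with beta catenin knocked out; cells exposed to compound for 60 hours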
# Cytochrome P450 2D6 = Cytochrome P450 2D6 (Homo sapiens, UniProt P10635);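 also: CYP2D6 member of a cytochrome P450 panel assay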
# Sequence of Cytochrome P450 2D6 (P10635 whole entry): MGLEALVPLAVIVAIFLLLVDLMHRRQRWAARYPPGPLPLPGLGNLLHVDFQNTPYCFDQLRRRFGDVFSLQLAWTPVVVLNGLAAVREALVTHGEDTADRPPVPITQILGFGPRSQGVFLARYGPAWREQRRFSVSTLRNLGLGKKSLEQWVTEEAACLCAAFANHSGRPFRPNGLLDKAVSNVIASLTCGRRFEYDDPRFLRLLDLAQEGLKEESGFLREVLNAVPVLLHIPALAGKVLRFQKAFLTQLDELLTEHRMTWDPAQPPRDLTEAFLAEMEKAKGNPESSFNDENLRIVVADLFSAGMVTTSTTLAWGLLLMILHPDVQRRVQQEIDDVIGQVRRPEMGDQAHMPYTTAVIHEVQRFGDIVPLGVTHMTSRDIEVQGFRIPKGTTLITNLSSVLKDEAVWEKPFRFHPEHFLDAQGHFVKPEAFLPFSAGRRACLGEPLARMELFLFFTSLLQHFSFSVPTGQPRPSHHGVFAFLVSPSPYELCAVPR
# Sequence of Cytochrome P450 2C9 (P11712 whole entry): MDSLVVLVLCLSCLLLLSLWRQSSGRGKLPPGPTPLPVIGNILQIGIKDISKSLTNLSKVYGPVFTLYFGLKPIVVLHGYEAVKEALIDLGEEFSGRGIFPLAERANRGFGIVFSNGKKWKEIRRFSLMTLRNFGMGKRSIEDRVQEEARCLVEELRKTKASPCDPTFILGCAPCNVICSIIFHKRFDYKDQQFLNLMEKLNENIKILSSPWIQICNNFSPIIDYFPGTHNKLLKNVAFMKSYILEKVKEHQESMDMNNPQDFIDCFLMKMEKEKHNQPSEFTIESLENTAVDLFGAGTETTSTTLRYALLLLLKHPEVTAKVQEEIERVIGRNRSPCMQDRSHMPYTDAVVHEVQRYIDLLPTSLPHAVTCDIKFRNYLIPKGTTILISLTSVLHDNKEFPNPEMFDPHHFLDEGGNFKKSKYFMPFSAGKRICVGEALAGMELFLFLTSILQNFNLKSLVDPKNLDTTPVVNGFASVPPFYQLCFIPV
structure (smiles),measurement,setting,value
NC(=O)NO [HYDROXYUREA],GI50,P388/ADR,59.3 µM (inactive)
same,GI50,SN12K1,173 µM (inactive)
same,GI50,P388,69.8 µM (inactive)
CCOC(=O)Nc1nc(-c2ccc(Cl)cc2Cl)cs1,IC50,Protein skinhead-1,21.4 µM (active)
O=C(/N=C1/N=C2C=CC(Br)=CN2Cc2ccccc21)c1ccc([N+](=O)[O-])cc1[N+](=O)[O-],EC50,[1],1.39 µM (active)
same,EC50,[2],> 60 µM (not active)
same,IC50,Protein skinhead-1,28.3 µM (active)
CCOC(=O)c1c(C)[nH]c(C(=O)COC(=O)c2oc3ccc(OC)cc3c2C)c1C,IC50,Protein skinhead-1,> 100 µM (inactive)
COc1ccc([N+](=O)[O-])cc1NC(=O)C(C)OC(=O)CSC(C)C(=O)Nc1cc(C)on1 (centres undefined),IC50,Protein skinhead-1,> 100 µM (inactive)
Cc1cccc(C)c1NC(=O)Cc1cccs1,IC50,[3],> 47.1 µM (inactive)
same,EC50,[4],> 53 µM (inactive)
N#Cc1ccc(-c2nc3c4ccccc4ccn3c2Cc2ccccc2C(F)(F)F)cc1,IC50,Protein skinhead-1,> 100 µM (inactive)
FC(F)(F)c1ccccc1-c1ccc2ncnc(NC3CCNCC3)c2c1,AC50,Cytochrome P450 1A2,20 µM (inconclusive)
same,AC50,Cytochrome P450 2C9,inconclusive
O=C1COc2ccccc2CN1,AC50,Cytochrome P450 2C9,inconclusive
O=C1NC2(CCCCC2)C(=O)N1CCN(CCCl)CCCl [SPIROMUSTINE],GI50,P388/ADR,29.6 µM (inactive)
same,GI50,SN12K1,132 µM (inactive)
same,GI50,P388,30.2 µM (inactive)
CCc1ccc(NC(=O)CSc2nc3cc(C(=O)OC)ccc3c(=O)n2CC2CCCO2)cc1 (centres undefined),EC50,[5],27.4 µM (active)
same,EC50,[6],25.2 µM (active)
O=c1[nH]c2ccc(Cl)cc2[nH]1,IC50,[3],> 47.1 µM (inactive)
same,EC50,[4],> 53 µM (inactive)
CC(Sc1nc(-c2ccccc2)cc(C(F)(F)F)n1)C(=O)Nc1ccc2c(c1)OCO2 (centres undefined),EC50,[5],19.3 µM (active)
same,EC50,[6],24.6 µM (active)
C(=N/NC1=NCCN1)/c1c2ccccc2c(/C=N\NC2=NCCN2)c2ccccc12,GI50,P388/ADR,14.6 µM (inactive)
same,GI50,SN12K1,0.0284 µM (active)
same,GI50,P388,0.000861 µM (active)
NC1=NC(c2ccccc2)CC(c2cc(Cl)cc(Br)c2O)=N1 (centres undefined),GI50,P388/ADR,3.87 µM (inactive)
same,GI50,SN12K1,13.6 µM (inactive)
same,GI50,P388,2.9 µM (inactive)
CCC1=CC2CN3CCc4c([nH]c5ccccc45)C(C(=O)OC)(C2)C13 (centres undefined),GI50,P388/ADR,30.1 µM (inactive)
same,GI50,SN12K1,17.7 µM (inactive)
same,GI50,P388,21 µM (inactive)
O=C(O)Cc1cccc2c(=O)cc(-c3ccccc3)oc12 [MITOFLAXONE],GI50,P388/ADR,> 79.3 µM (inactive)
same,GI50,SN12K1,> 250 µM (inactive)
same,GI50,P388,93.8 µM (inactive)
CN(CC(=O)Nc1cccc2c1CCCC2)S(=O)(=O)c1ccc(Br)cc1,AC50,Cytochrome P450 2D6,3.16 µM (inconclusive)
same,AC50,Cytochrome P450 1A2,10 µM (inconclusive)
same,AC50,Cytochrome P450 2C9,inconclusive
